Source: ChEMBL document CHEMBL3137667, “[Drug-induced liver injury; fourteenth updated edition of the bibliographic database of liver injuries and related drugs]” (Gastroenterol Clin Biol, 2004)

Legend:
[1] = human
[2] = human, serum
[3] = Presence of at least one case with successful reintroduction. [column 'REINT' in source]; settings: human
[4] = human; remark: listed apart in the source
[5] = human; remark: listed apart in the source
[6] = Highest frequency of moderate liver toxicity observed during clinical trials, expressed as a percentage. [column '% BIOL' in source]; settings: human
[7] = human; remark: listed apart in the source
[8] = human; remark: listed apart in the source
[9] = human; remark: listed apart in the source
[10] = human; remark: listed apart in the source
[11] = Times to onset, minimal and maximal, observed in the indexed observations. [column 'DELAI' in source]; settings: human
[12] = human, serum, 4383 h
[13] = Comments (NB not yet translated). [column 'COMMENTAIRES' in source]; settings: human
[14] = human; remark: listed apart in the source
[15] = human; remark: listed apart in the source
[16] = Highest frequency of acute liver toxicity observed during clinical trials, expressed as a percentage. [column '% AIGUE' in source]; settings: human
[17] = human; remark: listed apart in the source
[18] = human, serum; remark: listed apart in the source
[19] = Proposed mechanism(s) of liver damage. [column 'MEC' in source]; settings: human
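Wherever Hepatotoxicity (association with vascular disease) is given: count of indexed literature references reporting vascular liver injury in humans, e.g. peliosis hepatitis, hepatic veno-occlusive disease or Budd-Chiari syndrome.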
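Wherever Hepatotoxicity (benign tumour) is given: value is a count of indexed literature references citing a benign tumour confirmed by histopathology.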
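Wherever Hepatotoxicity (choleostasis) is given: human cholestatic liver injury, shown by histopathology or by peak ALT or AST elevation over alkaline phosphatase ratio below 2, value counts indexed literature reports.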
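Wherever Hepatotoxicity (chronic liver disease) is given: chronic liver injury confirmed by histopathology or persistently raised serum aminotransferase activity beyond 6 months, value given as the count of indexed literature references.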
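Wherever Hepatotoxicity (cirrhosis) is given: value is a count of indexed literature references reporting cirrhosis confirmed by histopathology.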
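Wherever Hepatotoxicity (cytolytic) is given: human cytolytic liver injury, shown by histopathology or by a ratio above 5 of peak ALT or AST elevation to alkaline phosphatase elevation, value counts indexed references.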
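Wherever Hepatotoxicity (granulomatous hepatitis) is given: value is a count of indexed literature references reporting granulomatous liver disease confirmed by histopathology.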
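Wherever Hepatotoxicity (malignant tumour) is given: malignant tumour confirmed by histopathology, value gives the count of indexed literature references reporting it.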
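Wherever Hepatotoxicity (severe hepatitis) is given: human clinical data: severe hepatitis, meaning potentially life-threatening liver failure or clinically observed cases, the value counts how many indexed literature references report it.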
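Wherever Hepatotoxicity (steatosis) is given: steatosis confirmed by histopathology, value is the count of indexed references.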

Row | SMILES | Hepatotoxicity (association with vascular disease) [1] | Hepatotoxicity (moderate) [2] | Hepatotoxicity (successful reintroduction) [3] | Hepatotoxicity (granulomatous hepatitis) [4] | Hepatotoxicity (malignant tumour) [5] | Hepatotoxicity (moderate) [6] | Hepatotoxicity (animal toxicity known) [7] | Hepatotoxicity (severe hepatitis) [8] | Hepatotoxicity (steatosis) [9] | Hepatotoxicity (cytolytic) [10] | Hepatotoxicity (time to onset) [11] | Hepatotoxicity (chronic liver disease) [12] | Hepatotoxicity (comment) [13] | Hepatotoxicity (cirrhosis) [14] | Hepatotoxicity (choleostasis) [15] | Hepatotoxicity (acute) [16] | Hepatotoxicity (benign tumour) [17] | Hepatotoxicity (acute) [18] | Hepatotoxicity (mechanism) [19] | also measured
1 | NC(N)=Nc1nc(CSCCN/C=N/S(=O)(=O)c2ccc(Br)cc2)cs1 [EBROTIDINE] | 0 | 0 | yes | 0 | 0 | 0% | yes | 1 | 0 | 2 | 2 weeks - 6 months | 1 | AC_ANTI-ML | 1 | 0 | 0% | 0 | 2 | – | –
2 | CNC(=C[N+](=O)[O-])NCCSCc1ccc(CN(C)C)o1 [RANITIDINE] | 0 | 37 | yes | 1 | 0 | 18.6% | yes | 2 | 1 | 12 | 4 days - 3 months | 1 | AC_ANTI-ML/-N CHOLANGITE | 0 | 15 | 0% | 0 | – | Allergic, Dose-dependant, Toxic Metabolite | –
3 | CN(C)CCCN1c2ccccc2CCc2ccccc21 [IMIPRAMINE] | 0 | – | yes | 0 | 0 | – | yes | – | 0 | 9 | 1 week - 1 year | 1 | RC/DESPRAMINE CHOLESTASE_PROLONGEE | 0 | 13 | – | 0 | – | Allergic, Reactive metabolite | –
4 | CC(=O)Nc1ccc(O)cc1 [ACETAMINOPHEN] | 0 | – | yes | 1 | 0 | – | yes | – | 1 | 98 | 1 day - 12 years | 7 | I/ALCOOL/PHENYTOINE/PHENOBARBITAL/IFN/ZIDOVUDINE #CBP | 5 | 5 | – | 0 | – | Allergic, Toxic Metabolite | –
5 | CN(N=O)C(=O)N[C@@H](C=O)[C@@H](O)[C@H](O)[C@H](O)CO [STREPTOZOCIN] | 0 | 9 | yes | 0 | 0 | 67% | yes | 2 | 0 | 1 | 4 days - 6 weeks | 0 | CHOLANGITE/IAH | 0 | 0 | 35.3% | 0 | 3 | – | –
6 | O=C1CN(/N=C/c2ccc([N+](=O)[O-])o2)C(=O)N1 [NITROFURANTOIN] | 0 | 2 | yes | – | 1 | – | yes | – | 1 | – | 2 days - 10 years | 37 | AC_ANTI-ML/-N RC/FURAZOLIDONE/NIFUROXIME CHOLANGITE | 7 | – | – | 1 | – | – | Hepatotoxicity (granulomatous hepatitis) ([4]; Liver): 2; Hepatotoxicity (moderate) ([6]; Liver): 0%; Hepatotoxicity (severe hepatitis) ([8]; Liver): 8; Hepatotoxicity (cytolytic) ([10]; Liver): 9; Hepatotoxicity (choleostasis) ([15]; Liver): 27; Hepatotoxicity (acute) ([16]; Liver): 0%; Hepatotoxicity (mechanism) ([19]; Liver): Allergic
7 | Nc1c2c(nc3ccccc13)CCCC2 [TACRINE] | 0 | 38 | yes | – | 0 | – | yes | – | 1 | – | 1 week - 1.7 years | 0 | – | 0 | – | – | 0 | 22 | – | Hepatotoxicity (granulomatous hepatitis) ([4]; Liver): 4; Hepatotoxicity (moderate) ([6]; Liver): 54%; Hepatotoxicity (severe hepatitis) ([8]; Liver): 2; Hepatotoxicity (cytolytic) ([10]; Liver): 19; Hepatotoxicity (choleostasis) ([15]; Liver): 1; Hepatotoxicity (acute) ([16]; Liver): 13.4%; Hepatotoxicity (mechanism) ([19]; Liver): Dose-dependant
8 | C[C@H](CCC(=O)O)[C@H]1CC[C@H]2[C@@H]3[C@H](O)C[C@@H]4C[C@H](O)CC[C@]4(C)[C@H]3CC[C@]12C [CHENODIOL] | 0 | 22 | yes | 0 | 0 | 37% | yes | 0 | 0 | 3 | 3 weeks - 3 months | 1 | – | 0 | 2 | 3% | 0 | 5 | Dose-dependant | –
9 | O=C1CN(/N=C/c2ccc(-c3ccc([N+](=O)[O-])cc3)o2)C(O)=N1 [DANTROLENE] | 0 | 11 | yes | 0 | 0 | 1.8% | yes | 7 | 0 | 10 | 7 days - 1 year | 1 | CHOLANGITE | 0 | 6 | 0.6% | 0 | 11 | – | –
